Results published in US20180296630A1, “METHODS AND COMPOSITIONS FOR PREVENTING OR TREATING OPHTHALMIC CONDITIONS” (Stealth BioTherapeutics Corp, priority 2012, published 2018).

What was measured:
[1] = system: GTM cells; experiment: Mitochondrial membrane potential of GTM cells exposed to H2O2 (TMRM, confocal microscopy / flow cytometry); type: cell-based, human
Description: (§1) Methods to measure mitochondrial membrane potential using TMRM useful in the studies of the present invention have been described by Andrea Rasola and Massimo Geuna, A flow cytometry assay simultaneously detects independent apoptotic parameters, Cytometry 45:151-157, 2001; Mitoprobe™ JC-1 Kit for Flow Cytometry, Molecular Probes, Invitrogen, USA.
(§2) The mitochondrial membrane potential (Δψm) of HTM and GTM cells was investigated when those cells were exposed to hydrogen peroxide prior to administration of D-Arg-2′,6′-Dmt-Lys-Phe-NH2. First, the mitochondrial membrane potential was measured using confocal microscopy of cells labeled with tetramethylrhodamine methyl ester (TMRM, 500 nM×30 min) (FIG. 15). The mitochondrial membrane potential was also measured using flow cytometry (FIGS. 16-17) by labeling cells with the mitochondrion-selective probe tetramethylrhodamine methyl ester (TMRM, 500 nM×30 min).
The morphology of GTM cells was investigated when those cells were exposed to D-Arg-2′,6′-Dmt-Lys-Phe-NH2 prior to administration of hydrogen peroxide. […] That is, hydrogen peroxide mediated cell loss and rounding was diminished in cells exposed to D-Arg-2′,6′-Dmt-Lys-Phe-NH2 peptide. The mitochondrial membrane potential (Δψm) of HTM and GTM cells was also investigated when those cells were exposed to D-Arg-2′,6′-Dmt-Lys-Phe-NH2 prior to administration of hydrogen peroxide. The mitochondrial membrane potential was measured using confocal microscopy of cells labeled with tetramethylrhodamine methyl ester (TMRM, 500 nM×30 min) (FIG. 19-21). […] As such, D-Arg-2′,6′-Dmt-Lys-Phe-NH2 provides a protective effect against oxidative stress in GTM cells.

[2] = system: 661W cells; experiment: tBHP-induced death of 661W cone cells; type: cell-based, mouse; conditions: different doses
Description: A cone cell specific line 661W was derived from a mouse retinal tumor. Methods useful in the present studies of 661W cells have been described previously. See generally, Gearóid Tuohy, Sophia Millington-Ward, Paul F. Kenna, Peter Humphries and G. Jane Farrar, Sensitivity of Photoreceptor-Derived Cell Line (661W) to Baculoviral p35, Z-VAD.FMK, and Fas-Associated Death Domain, Investigative Ophthalmology and Visual Science. 2002; 43:3583-3589. These cells were cultured to test the effects of the aromatic-cationic peptides of the invention in preventing or reducing oxidative damage in the cone cells (FIG. 27). First, it was shown that tBHP affected survival of 661W cells (FIG. 27A). Different doses of tBHP were administered to the cells for 3 h. Next, it was shown that different doses of D-Arg-2′,6′-Dmt-Lys-Phe-NH2 reduced tBHP-induced 661W cell death (FIG. 27B).

[3] = system: HTM cells; experiment: Intracellular ROS production, acute H2O2 injury, FACS, HTM cells; type: cell-based, human; conditions: n=4
Description: (§3) The percentage of intracellular ROS production compared to GTM control in GTM H2O2, D-Arg-2′,6′-Dmt-Lys-Phe-NH2 10^−6M, D-Arg-2′,6′-Dmt-Lys-Phe-NH2 10^−7M, D-Arg-2′,6′-Dmt-Lys-Phe-NH2 10^−8M groups were 146.0±2.27%, 84.5±8.75%, 102.0±5.69%, 133.0±5.17% respectively (n=3); the HTM groups were 153.0±3.46%, 79±2.39%, 91.8±3.49%, 129.0±8.24% respectively (n=4). P<0.001 GTM and HTM H2O2 Group compared to control; *** means P<0.001 compared to GTM H2O2 group; ▴ ▴ ▴ Means P<0.001 compared to HTM H2O2 group; ▴ ▴ means P<0.01 compared to HTM H2O2 group.

[4] = system: caspase-3 in HRECs; experiment: Caspase-3 protein expression in high glucose-treated HRECs (Western blot); type: cell-based, human; conditions: 30 mM glucose co-treatment; 24 h and 48 h; p<0.05
Description: The level of cleaved caspase-3 protein expression was measured by Western blot (FIG. 5A). When HRECs were exposed to 30 mM glucose for 24 h and 48 h, the level of caspase-3 expression increased dramatically.

[5] = system: GTM cells; experiment: Intracellular ROS production, acute H2O2 injury, FACS, GTM cells; type: cell-based, human; conditions: n=3
Description: as §3

[6] = system: GTM cells; experiment: TMRM fluorescence (mitochondrial membrane potential), acute H2O2 injury, FACS, GTM cells; type: cell-based, human; conditions: n=4
Description: as §1, §2
(§4) The effects of D-Arg-2′,6′-Dmt-Lys-Phe-NH2 at mitigating acute oxidative injury in GTM and HTM cells was investigated. […] The percentage of fluorescence intensity compared to GTM control in H2O2, D-Arg-2′,6′-Dmt-Lys-Phe-NH2 10^−6M, D-Arg-2′,6′-Dmt-Lys-Phe-NH2 10^−7M, D-Arg-2′,6′-Dmt-Lys-Phe-NH2 10^−8M were 35.2±2.12%, 56.2±4.04%, 50.3±4.46%, 47.5±2.82% respectively, n=4; the HTM groups were 37.4±0.725%, 57.7±1.80%, 50.6±3.06%, 49.4±2.27% respectively, n=4. ** means P<0.01 compared to GTM H2O2 group; * means P<0.05 compared to GTM H2O2 group; ▴ ▴ ▴ means P<0.001 compared to HTM H2O2 group.

[7] = system: HTM cells; experiment: TMRM fluorescence (mitochondrial membrane potential), acute H2O2 injury, FACS, HTM cells; type: cell-based, human; conditions: n=4
Description: as §1, §2, §4

[8] = system: OIR mouse model; experiment: Oxygen-induced retinopathy (OIR) mouse model; type: in vivo
Description: In this model, 7-day-old mouse pups with partially developed retinal vasculature were subjected to hyperoxia (75% oxygen) for 5 days, which stops retinal vessel growth and causes significant vaso-obliteration. On postnatal day 12, the pups were returned to room air, and by postnatal day 17, a florid compensatory retinal neovascularization occurred. This model of pathological neovascularization has been widely used as a substitute for proliferative diabetic retinopathy (DR).
To examine the effects of the aromatic-cationic peptides of the invention on prevention of OIR, OIR was induced in mouse pups and the mice were simultaneously administered an aromatic-cationic peptide (e.g., Phe-D-Arg-Phe-Lys-NH2 or D-Arg-2′,6′-Dmt-Lys-Phe-NH2) for approximately 6 weeks. The results are shown in FIG. 26 and indicate that treatment with D-Arg-2′,6′-Dmt-Lys-Phe-NH2 prevented the compensatory retinal neovascularization. As such, the aromatic-cationic peptides of the invention are useful in methods of preventing proliferative diabetic retinopathy in mammalian subjects.

D-Arg-2′,6′-Dmt-Lys-Phe-NH2
decrease in mitochondrial potential (Δψm) elicited by H2O2 ([1]; GTM cells, co-treatment, 200 μM H2O2, confocal): dose-dependently inhibited the decrease
loss of mitochondrial membrane potential caused by H2O2 ([1]; GTM cells, co-treatment, 400 μM H2O2, dose-dependent, confocal): reduced the loss
mitochondrial membrane potential ([1]; cells exposed to hydrogen peroxide prior to administration of peptide (Group A)): improves
mitochondrial membrane potential ([1]; pre-treatment with peptide before hydrogen peroxide (Group B)): dose-dependently improves
tBHP-induced 661W cell death [2]: reduced
percentage of intracellular ROS production compared to control ([3]; 10^−6M): 79±2.39%
percentage of intracellular ROS production compared to control ([3]; 10^−7M): 91.8±3.49%
percentage of intracellular ROS production compared to control ([3]; 10^−8M): 129.0±8.24%
caspase-3 protein level [4]: marked decrease
percentage of intracellular ROS production compared to GTM control ([5]; 10^−6M): 84.5±8.75%
percentage of intracellular ROS production compared to GTM control ([5]; 10^−7M): 102.0±5.69%
percentage of intracellular ROS production compared to GTM control ([5]; 10^−8M): 133.0±5.17%
percentage of TMRM fluorescence intensity compared to GTM control ([6]; 10^−6M): 56.2±4.04%
percentage of TMRM fluorescence intensity compared to GTM control ([6]; 10^−7M): 50.3±4.46%
percentage of TMRM fluorescence intensity compared to GTM control ([6]; 10^−8M): 47.5±2.82%
percentage of TMRM fluorescence intensity compared to control ([7]; 10^−6M): 57.7±1.80%
percentage of TMRM fluorescence intensity compared to control ([7]; 10^−7M): 50.6±3.06%
percentage of TMRM fluorescence intensity compared to control ([7]; 10^−8M): 49.4±2.27%
avascular area ([8]; OIR mouse model (FIG. 26)): reduced
compensatory retinal neovascularization ([8]; OIR mouse pups): prevented
